Measured values from patent US20240124504A1, “AROMATIC HETEROCYCLIC COMPOUND, AND PHARMACEUTICAL COMPOSITION AND APPLICATION THEREOF” (GT APEIRON THERAPEUTICS LIMITED, priority 2020, published 2024).

Tests used:
[1] = target: CDK7/cyclinH/MAT1 complex (Homo sapiens, UniProt P50613); experiment: In-vitro enzymatic inhibitory activity testing, CDK7 inhibition assay (Caliper EZ Reader II); assay type: biochemical; conditions: CDK7/cyclinH/MAT1 6 nM, 180 min at 27° C.
In short: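 Enzyme preincubated 10 min with compound, then peptide substrate plus ATP added in 80 mM MES pH 6.5, 10 mM MgCl2 buffer; 180 min at 27 °C, stopped with EDTA.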

CDK2/cyclinE1 complex = CDK2/cyclinE1 complex (Homo sapiens, UniProt P24941); experiment: In-vitro enzymatic inhibitory activity testing, CDK2 inhibition assay (Caliper EZ Reader II); assay type: biochemical; conditions: CDK2/cyclinE1 0.5 nM, 180 min at 27° C.
Method: CDK12/CyclinK was diluted in an assay buffer (80 mM MES PH 6.5, 0.01% Tween 20, 50 ug/mL BSA, 10 mM MgCl2) to afford a corresponding enzyme solution with the 2.4 concentration. […] A CDK9/cyclinT1 complex (8 nM) and a “5-FAM-CDK9tide” peptide substrate (2 IM, synthetic fluorophore-labeled peptide with the following sequence: 5-FAM-GSRTPMY-NH2, wherein 5-FAM was as defined above and NH2 represented C-terminal amide) were used for a CDK9 inhibition assay. […] A CDK2/cyclinE1 complex (0.5 nM) and “5-FAM-CDK7tide” (2 μM) as defined above were used for CDK2 inhibition assay.
(§1) A reaction mixture was analyzed on Caliper EZ Reader II by electrophoretic separation of a fluorogenic substrate and a phosphorylated product. Data were calculated by using GraphPad Prism version 6.0, and IC50 values were adjusted and obtained by using a nonlinear regression model of a dose response curve.

CDK9/cyclinT1 complex = CDK9/cyclinT1 complex (Homo sapiens, UniProt P50750); experiment: In-vitro enzymatic inhibitory activity testing, CDK9 inhibition assay (Caliper EZ Reader II); assay type: biochemical; conditions: CDK9/cyclinT1 8 nM, 180 min at 27° C.
Method: CDK12/CyclinK was diluted in an assay buffer (80 mM MES PH 6.5, 0.01% Tween 20, 50 ug/mL BSA, 10 mM MgCl2) to afford a corresponding enzyme solution with the 2.4 concentration. A compound was dissolved in dimethyl sulfoxide (DMSO) at a concentration of 10 mM. […] 2 ul of a test compound solution was mixed with 5 ul of the enzyme solution; after incubation for 10 min, 5 ul of the polypeptide substrate and ATP mixed solution was added; incubation was carried out for 180 min at 27° C.; and then, the reaction was terminated by adding 4 uL of EDTA with a concentration of 120 mM to each sample. […] A CDK9/cyclinT1 complex (8 nM) and a “5-FAM-CDK9tide” peptide substrate (2 IM, synthetic fluorophore-labeled peptide with the following sequence: 5-FAM-GSRTPMY-NH2, wherein 5-FAM was as defined above and NH2 represented C-terminal amide) were used for a CDK9 inhibition assay. […] A CDK2/cyclinE1 complex (0.5 nM) and “5-FAM-CDK7tide” (2 μM) as defined above were used for CDK2 inhibition assay.
as §1

[2] = target: T1, CDK12 (aa686-1082)/cyclinK complex (Homo sapiens, UniProt Q9NYV4); experiment: In-vitro enzymatic inhibitory activity testing, CDK12 inhibition assay (Caliper EZ Reader II); assay type: biochemical; conditions: CDK12/cyclinK 50 nM, 180 min at 27° C.; read-out: CDK12 IC50
T1 construct: A CDK12 (aa686-1082)/cyclinK complex (50 nM)
Method: An assay was carried out in a U-bottom 384-well plate (coming, 4512#), and the reaction temperature was 27° C. CDK7/CyclinH was diluted in an assay buffer (20 mM MES PH 6.75, 0.01% Tween 20, 50 ug/mL BSA, 6 mM MgCl2) to afford a corresponding enzyme solution with the 2.4× concentration. CDK2/CyclinE1 was diluted in an assay buffer (20 mM MES PH 6.75, 0.01% Tween 20, 50 ug/mL BSA, 6 mM MgCl2) to afford a corresponding enzyme solution with the 2.4× concentration. CDK9/CyclinT1 was diluted in an assay buffer (20 mM MES PH 6.75, 0.01% Tween 20, 50 ug/mL BSA, 10 mM MgCl2) to afford a corresponding enzyme solution with the 2.4× concentration. CDK12/CyclinK was diluted in an assay buffer (80 mM MES PH 6.5, 0.01% Tween 20, 50 ug/mL BSA, 10 mM MgCl2) to afford a corresponding enzyme solution with the 2.4 concentration. A compound was dissolved in dimethyl sulfoxide (DMSO) at a concentration of 10 mM. During use, the compound was diluted with DMSO into 10 concentration gradients from 25 nM to 500 uM, and respectively diluted by 8.3 folds in the assay buffer to afford a compound solution with a 6× concentration. A polypeptide substrate and ATP were diluted in the assay buffer to afford a polypeptide substrate and ATP mixed solution with a 2.4× concentration. 2 ul of a test compound solution was mixed with 5 ul of the enzyme solution; after incubation for 10 min, 5 ul of the polypeptide substrate and ATP mixed solution was added; incubation was carried out for 180 min at 27° C.; and then, the reaction was terminated by adding 4 uL of EDTA with a concentration of 120 mM to each sample. […]. Specifically, a CDK7/cyclinH/MAT1 complex (6 nM) and a “5-FAMCD K 7 tide” peptide substrate (2 μM, synthetic fluorophore-labeled peptide with the following sequence: 5-FAM-[…], wherein “5-FAM” refers to 5-carboxyfluorescein) were used for a CDK7 inhibition assay. A CDK9/cyclinT1 complex (8 nM) and a “5-FAM-CDK9tide” peptide substrate (2 IM, synthetic fluorophore-labeled peptide with the following sequence: 5-FAM-GSRTPMY-NH2, wherein 5-FAM was as defined above and NH2 represented C-terminal amide) were used for a CDK9 inhibition assay. A CDK12 (aa686-1082)/cyclinK complex (50 nM) and “5-FAM-CDK9tide” (2 μM) as defined above were used for a CDK12 inhibition assay. A CDK2/cyclinE1 complex (0.5 nM) and “5-FAM-CDK7tide” (2 μM) as defined above were used for CDK2 inhibition assay.
as §1

[3] = tested on: human breast cancer cells HCC70; experiment: Cell biological activity detection (CyQuant, 72 hours), HCC70; assay type: cell-based; conditions: incubation for 72 hours
Method: (§2) A2780 and HCC70 cells were subjected to trypsin digestion treatment, and cell suspensions were respectively transferred to 15 mL centrifuge tubes and centrifuged for 5 min at […]) rpm; supernatant was discarded, and resuspension was carried out in a fresh medium (RPMI 1640+10% FBS), after counting, cells were seeded into a 384-well plate at 2000/well (50 μL of 1640+10% FBS medium was added to the 2nd column and the 23rd column of the 384-well plate, and 50 μL of DPBS was added to the surrounding wells). Incubation was carried out overnight in an incubator (37° C., 5% CO2).
(§3) The compound was added to the well plates the next day. The compound had the highest concentration of 10 μM and was diluted at 1:4, and there were a total of 9 concentrations; and a positive compound Paclitaxel had the highest concentration of 1 μM and was diluted at 1:3, and there were a total of 9 concentrations. The DMSO content in each well was unified to 0.2%. The cell plates were centrifuged for 30 seconds at 800 rpm and placed in an incubator (37° C., 5% CO2) for incubation for 72 hours. On the fourth day, a Cyquant reagent (3×) was formulated according to kit instructions, and formulation was carried out for each 384-well plate according to the following proportions: DPBS 11.568 mL, CyQuant®? Direct nucleic acid stain 72 μL, and CyQuant® Direct background suppressor 360 μL. After uniform mixing, the reagent was placed at room temperature for further use. The cell plates were taken out and equilibrated for 30 min at room temperature, and 25 μL of the Cyquant reagent (3×) per well was dispensed into the cells of the 384-well plates by Multi-drop, and incubation was carried out for more than 60 minutes at 37° C. Acumen plate reading (Acumen setting: an excitation wavelength of 488 nm). IC50 results were analyzed by XLFIT5 from IDBS Company.

ovarian cancer A2780 = experiment: Cell biological activity detection (CyQuant, 72 hours), A2780; assay type: cell-based, human; conditions: A2780 cells, incubation for 72 hours
Method: as §2, §3

CDK9/cyclinT1 complex, sequence (P50750 whole entry, species assumed): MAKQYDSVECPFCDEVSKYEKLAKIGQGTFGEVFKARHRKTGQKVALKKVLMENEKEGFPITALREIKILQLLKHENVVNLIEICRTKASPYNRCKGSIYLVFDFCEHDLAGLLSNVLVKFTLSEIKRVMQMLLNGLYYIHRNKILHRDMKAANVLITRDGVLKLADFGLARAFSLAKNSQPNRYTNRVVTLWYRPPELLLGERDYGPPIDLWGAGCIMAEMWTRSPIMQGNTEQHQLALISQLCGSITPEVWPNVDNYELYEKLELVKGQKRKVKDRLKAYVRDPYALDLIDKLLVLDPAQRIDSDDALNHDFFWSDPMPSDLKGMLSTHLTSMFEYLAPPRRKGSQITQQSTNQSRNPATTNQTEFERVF
CDK9/cyclinT1 complex, sequence (O60563 whole entry partner, species assumed): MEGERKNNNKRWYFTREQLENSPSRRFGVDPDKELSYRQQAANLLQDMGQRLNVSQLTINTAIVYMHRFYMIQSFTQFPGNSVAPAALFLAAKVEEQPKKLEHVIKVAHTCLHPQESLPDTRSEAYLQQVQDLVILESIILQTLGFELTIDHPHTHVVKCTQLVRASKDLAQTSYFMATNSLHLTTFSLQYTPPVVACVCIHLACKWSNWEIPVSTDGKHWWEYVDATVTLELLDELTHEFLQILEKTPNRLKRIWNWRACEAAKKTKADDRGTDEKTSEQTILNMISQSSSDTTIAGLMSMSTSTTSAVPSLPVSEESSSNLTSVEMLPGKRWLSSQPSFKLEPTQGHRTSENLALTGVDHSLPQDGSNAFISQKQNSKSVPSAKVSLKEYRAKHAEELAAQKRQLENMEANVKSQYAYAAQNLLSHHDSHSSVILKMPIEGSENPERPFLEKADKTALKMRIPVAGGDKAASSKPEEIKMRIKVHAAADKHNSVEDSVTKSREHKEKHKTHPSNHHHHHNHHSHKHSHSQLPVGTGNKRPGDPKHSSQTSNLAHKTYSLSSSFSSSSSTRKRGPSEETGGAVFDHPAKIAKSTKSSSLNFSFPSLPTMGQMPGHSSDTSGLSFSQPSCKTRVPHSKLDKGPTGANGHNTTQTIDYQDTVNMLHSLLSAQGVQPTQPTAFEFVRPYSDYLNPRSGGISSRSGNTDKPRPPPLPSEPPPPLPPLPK
CDK7/cyclinH/MAT1 complex, sequence (P50613 whole entry, species assumed): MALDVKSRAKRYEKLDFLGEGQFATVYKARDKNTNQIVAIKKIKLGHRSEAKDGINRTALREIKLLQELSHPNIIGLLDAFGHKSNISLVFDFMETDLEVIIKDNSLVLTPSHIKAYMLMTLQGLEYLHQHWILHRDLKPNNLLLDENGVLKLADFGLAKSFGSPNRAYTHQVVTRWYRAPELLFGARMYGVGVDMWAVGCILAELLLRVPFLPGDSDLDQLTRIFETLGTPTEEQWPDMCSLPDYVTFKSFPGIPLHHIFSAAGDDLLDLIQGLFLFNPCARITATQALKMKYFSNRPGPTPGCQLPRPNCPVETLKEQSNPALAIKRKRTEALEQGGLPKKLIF
CDK7/cyclinH/MAT1 complex, sequence (P51946 whole entry partner, species assumed): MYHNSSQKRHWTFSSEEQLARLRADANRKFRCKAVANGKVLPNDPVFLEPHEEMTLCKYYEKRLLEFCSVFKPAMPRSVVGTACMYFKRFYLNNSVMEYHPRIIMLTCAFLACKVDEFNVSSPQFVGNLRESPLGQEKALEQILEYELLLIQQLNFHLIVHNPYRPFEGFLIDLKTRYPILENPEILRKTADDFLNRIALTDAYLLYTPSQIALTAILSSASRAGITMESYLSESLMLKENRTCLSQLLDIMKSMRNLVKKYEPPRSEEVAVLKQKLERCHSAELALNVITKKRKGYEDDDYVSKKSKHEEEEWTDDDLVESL
CDK7/cyclinH/MAT1 complex, sequence (P51948 whole entry partner, species assumed): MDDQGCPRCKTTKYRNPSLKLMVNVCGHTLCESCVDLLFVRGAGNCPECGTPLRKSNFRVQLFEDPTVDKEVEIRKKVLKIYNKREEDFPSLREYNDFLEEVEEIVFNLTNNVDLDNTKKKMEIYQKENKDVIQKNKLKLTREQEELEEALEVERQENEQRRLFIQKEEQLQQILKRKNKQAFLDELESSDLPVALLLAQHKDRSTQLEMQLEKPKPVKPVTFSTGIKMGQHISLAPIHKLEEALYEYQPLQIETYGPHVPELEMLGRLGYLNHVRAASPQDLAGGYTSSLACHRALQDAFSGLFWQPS
T1 sequence (Q9NYV4 686-1082, species assumed): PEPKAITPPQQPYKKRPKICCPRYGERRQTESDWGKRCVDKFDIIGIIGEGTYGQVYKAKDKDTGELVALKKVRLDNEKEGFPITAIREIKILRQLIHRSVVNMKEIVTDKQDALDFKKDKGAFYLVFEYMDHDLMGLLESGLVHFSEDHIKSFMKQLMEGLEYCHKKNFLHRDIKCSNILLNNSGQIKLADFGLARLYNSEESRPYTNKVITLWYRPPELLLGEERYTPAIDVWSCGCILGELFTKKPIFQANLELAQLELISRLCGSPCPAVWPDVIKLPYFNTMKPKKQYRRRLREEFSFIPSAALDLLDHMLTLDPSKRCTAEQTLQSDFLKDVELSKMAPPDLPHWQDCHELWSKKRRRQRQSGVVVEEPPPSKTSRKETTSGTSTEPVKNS
T1 sequence (O75909 whole entry partner, species assumed, the tested form may be a part): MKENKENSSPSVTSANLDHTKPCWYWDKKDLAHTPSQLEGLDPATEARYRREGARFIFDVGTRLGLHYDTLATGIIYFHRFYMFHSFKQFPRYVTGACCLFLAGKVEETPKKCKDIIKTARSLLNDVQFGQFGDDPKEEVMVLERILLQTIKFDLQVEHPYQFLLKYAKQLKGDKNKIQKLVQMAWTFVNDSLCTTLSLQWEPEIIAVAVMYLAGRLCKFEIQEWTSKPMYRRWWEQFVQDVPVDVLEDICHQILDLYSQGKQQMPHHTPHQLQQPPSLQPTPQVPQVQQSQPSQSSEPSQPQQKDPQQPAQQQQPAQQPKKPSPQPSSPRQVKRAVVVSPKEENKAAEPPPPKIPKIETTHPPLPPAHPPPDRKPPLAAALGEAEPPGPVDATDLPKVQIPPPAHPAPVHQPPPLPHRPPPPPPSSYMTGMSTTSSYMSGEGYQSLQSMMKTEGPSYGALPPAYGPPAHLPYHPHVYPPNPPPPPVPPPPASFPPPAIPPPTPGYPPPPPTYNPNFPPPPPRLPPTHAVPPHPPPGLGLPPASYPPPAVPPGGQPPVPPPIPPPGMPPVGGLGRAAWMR

Row | Compound | IC50 [1] | IC50 (CDK2/cyclinE1 complex) | IC50 (CDK9/cyclinT1 complex) | IC50 [2] | IC50 (ovarian cancer A2780) | IC50 (ovarian cancer A2780; Homo sapiens, A2780, 72 h) | IC50 [3] | IC50 ([3]; Homo sapiens, HCC70, 72 h)
1 | CP(C)(=O)c1cccc2c(-c3nc(NC4CC45CCNC5)ncc3C(F)(F)F)c[nH]c12 (single isomer, unassigned) [Compound 109] | 20 to 200 nM | 5000 to 50000 nM | > 50000 nM | > 50000 nM | 20 to 200 nM |  | 20 to 200 nM | 
2 | CP(C)(=O)c1cccc2c(-c3nc(NCC4(O)CCOC4)ncc3C(F)(F)F)c[nH]c12 (single isomer, unassigned) [Compound 122] | 20 to 200 nM | 5000 to 50000 nM | > 50000 nM | > 50000 nM | 200 to 5000 nM |  | 20 to 200 nM | 
3 | CP(C)(=O)c1cccc2c(-c3nc(NCC(O)C(F)F)ncc3C(F)(F)F)c[nH]c12 (single isomer, unassigned) [Compound 125] | 20 to 200 nM | 5000 to 50000 nM | > 50000 nM | > 50000 nM | 200 to 5000 nM |  | 20 to 200 nM | 
4 | CN(C)CC1CCCC1Nc1ncc(C(F)(F)F)c(-c2c[nH]c3c(P(C)(C)=O)cccc23)n1 (single isomer, unassigned) [Compound 135] | < 20 nM | 200 to 5000 nM | 5000 to 50000 nM | 200 to 5000 nM |  | < 20 nM |  | < 20 nM
5 | Cc1noc(C)c1-c1ccc2c(-c3nc(NC4CCC5(CCNC5)C4)ncc3C(F)(F)F)c[nH]c2n1 (stereo not drawn) [Compound 35, N-(4-(6-(3,5-dimethylisoxazol-4-yl)-1H-pyrrolo[2,3-b]pyridin-3-yl)-5-(trifluoromethyl)pyrimidin-2-yl)-2-azaspiro[4.4]non-7-amine] | < 20 nM | 200 to 5000 nM | 200 to 5000 nM | 200 to 5000 nM |  | 20 to 200 nM |  | 20 to 200 nM
6 | FC(F)(F)c1cnc(NC2CCC23CCNC3)nc1-c1c[nH]c2nc(N3CCOCC3)ccc12 (stereo not drawn) [Compound 37, N-(4-(6-morpholinyl-1H-pyrrolo[2,3-b]pyridin-3-yl)-5-(trifluoromethyl)pyrimidin-2-yl)-6-azaspiro[3.4]octan-1-amine] | 20 to 200 nM | 5000 to 50000 nM | 5000 to 50000 nM | 5000 to 50000 nM |  | 200 to 5000 nM |  | 200 to 5000 nM
7 | FC(F)(F)c1cnc(NC2CCC23CNC3)nc1-c1c[nH]c2nc(N3CCOCC3)ccc12 (stereo not drawn) [Compound 39, N-(4-(6-morpholinyl-1H-pyrrolo[2,3-b]pyridin-3-yl)-5-(trifluoromethyl)pyrimidin-2-yl)-2-azaspiro[3.3]heptan-5-amine] | < 20 nM | 5000 to 50000 nM | 5000 to 50000 nM | 5000 to 50000 nM |  | 20 to 200 nM |  | 20 to 200 nM
8 | FC(F)(F)c1cnc(NC2CCC3(CCNC3)C2)nc1-c1c[nH]c2nc(N3CCOCC3)ccc12 (stereo not drawn) [Compound 40, N-(4-(6-morpholinyl-1H-pyrrolo[2,3-b]pyridin-3-yl)-5-(trifluoromethyl)pyrimidin-2-yl)-2-azaspiro[4.4]non-7-amine] | 20 to 200 nM | 5000 to 50000 nM | 5000 to 50000 nM | 5000 to 50000 nM |  | 20 to 200 nM |  | 200 to 5000 nM

Now from value to compound, other results behind:

Row | IC50 [1] | IC50 (CDK2/cyclinE1 complex) | IC50 (CDK9/cyclinT1 complex) | IC50 [2] | IC50 (ovarian cancer A2780) | IC50 (ovarian cancer A2780; Homo sapiens, A2780, 72 h) | Compound | IC50 [3] | IC50 ([3]; Homo sapiens, HCC70, 72 h)
9 | < 20 nM | 5000 to 50000 nM | > 50000 nM | 5000 to 50000 nM | < 20 nM |  | CP(C)(=O)c1cccc2c(-c3nc(NC4CC45CCNC5)ncc3C(F)(F)F)c[nH]c12 (single isomer, unassigned) [Compound 110] | 20 to 200 nM | 
10 | 20 to 200 nM | 5000 to 50000 nM | > 50000 nM | > 50000 nM | < 20 nM |  | CP(C)(=O)c1cccc2c(-c3nc(NC4CC45CCNC5)ncc3C(F)(F)F)c[nH]c12 (single isomer, unassigned) [Compound 111] | 20 to 200 nM | 
11 | 20 to 200 nM | 5000 to 50000 nM | > 50000 nM | > 50000 nM |  | 200 to 5000 nM | CP(C)(=O)c1cccc2c(-c3nc(NCC4(O)CCOC4)ncc3C(F)(F)F)c[nH]c12 (single isomer, unassigned) [Compound 121] |  | 20 to 200 nM
12 | < 20 nM | 5000 to 50000 nM | > 50000 nM | > 50000 nM | 20 to 200 nM |  | CP(C)(=O)c1cccc2c(-c3nc(NCC(O)C(F)F)ncc3C(F)(F)F)c[nH]c12 (single isomer, unassigned) [Compound 124] |  | 20 to 200 nM
13 | < 20 nM | 5000 to 50000 nM | > 50000 nM | > 50000 nM |  | 20 to 200 nM | CP(C)(=O)c1cccc2c(-c3nc(NCC(O)C(F)(F)F)ncc3C(F)(F)F)c[nH]c12 (single isomer, unassigned) [Compound 146] | 20 to 200 nM | 
14 | 20 to 200 nM | > 50000 nM | > 50000 nM | > 50000 nM | 20 to 200 nM |  | CP(C)(=O)c1cccc2c(-c3nc(NCC(O)C(F)(F)F)ncc3C(F)(F)F)c[nH]c12 (single isomer, unassigned) [Compound 147] | 200 to 5000 nM | 
